Data set [1] can be described thus: DSC and TGA thermal analysis of Cl-BTMP. The class given is physicochemical.
A short description of another data set: Solubility in water. The class given is physicochemical.
For data set [2], the system named is Staphylococcus aureus subsp. aureus (S. aureus, ATCC 6538, gram-positive). The data set can be described thus: Antimicrobial activity of CADMH in aqueous suspension. The class given is cell-based. The conditions noted are these: for contact time for a total kill of 10^8-10^9 CFU/mL of S. aureus: 500 ppm of active chlorine content. The procedure:
(§1) In other examples to evaluate antimicrobial activities of CADMH, Escherichia coli (e.g., E. coli, ATCC® 15597™, gram-negative) and Staphylococcus aureus subsp. aureus (e.g., S. aureus, ATCC® 6538™, gram-positive) were used as model microorganisms to challenge the antimicrobial functions of the samples. In the microbial studies, the bacteria were grown in broth solutions (e.g., LB broth for E. coli; Tryptic Soy broth for S. aureus) overnight at 37° C. Cells were harvested in a centrifuge, washed twice with phosphate buffered saline (e.g., PBS, OmniPur®, NaCl, 8.0 g/L; KCl, 0.20 g/L; Na2HPO4, 1.42 g/L; KH2PO4, 1.36 g/L; pH 7.4), re-suspended in PBS, and then diluted to concentrations of 10^8-9 CFU/mL. A known amount of CADMH (particle size: 60-80 mesh) was dispersed in 10 mL of sterilized distilled water. The mixture was vortexed and then sonicated for 10 minutes. Then, 100 μL of the bacteria suspension were added into the CADMH-containing suspension and the resultant mixture was vortexed for 60 seconds. After a certain period of contact time under constant shaking, the mixture was poured into 90 mL of 0.03 wt % sterilized sodium thiosulfate aqueous solution to quench the active chlorine and stop the antimicrobial test. […] The resulting solutions were vortexed for 2 minutes and then serially diluted, and each dilution was placed onto LB agar (for E. coli) or Tryptic soy agar (for S. aureus). The same procedure was also applied to the correspondent unchlorinated samples as controls. Bacterial colonies on the plates were counted after incubation at 37° C. for 24 hours.

Data set [3] has as its system Escherichia coli (E. coli, ATCC 15597, gram-negative). The data set is described as above. The class given is cell-based. The conditions noted are these: for contact time for a total kill of 10^8-10^9 CFU/mL of E. coli: 500 ppm of active chlorine content; for % of kill of E. coli / log reduction of E. coli: 1000 ppm of active chlorine content. The procedure: as §1
The next data set relates to S. epidermidis. Nature of the data set: Anti-biofilm functions of N-halamine-containing samples (recovered bacteria, SEM). The class given is cell-based. The conditions noted are these: polyurethane samples containing 4% additive, three days of immersion in S. epidermidis. Here is the method: Preparation of N-halamine-containing materials. In one example, a predetermined amount of Cl-ODDMH (e.g., 1%, 2% and 4% to PU) was added into 5% polyurethane (Noveon) solutions in THF under constant stirring to from a clear solution. The solution was cast onto Teflon sheets in a fume hood at room temperature for 2 days to produce thin films (e.g., 170±10 μm of thickness). The films were further dried under vacuum at 50° C. for 3 days. Cl-ODDMH-containing PU sheets (e.g., 4×4 cm) or discs (e.g., 0.5 cm of diameter) were cut sterilely from the films. Pure PU sheets or discs were prepared under the same conditions as controls.
Anti-biofilm functions. The samples were immersed individually in sealed tubes containing 5 mL of S. epidermidis broth suspension (10^6-10^7 CFU/mL of bacteria) in a shaking water bath at 37° C. and 30 RPM. […] The solution was serially diluted, and 100 μL of each dilution was plated onto agar plates. The same procedure was applied to the untreated samples as controls. Bacterial colonies were counted after incubation at 37° C. for between about 24 and 48 hours. SEM studies were used to confirm the biofilm controlling function. PU discs with or without the presence of Cl-ODDMH were immersed in 5 mL 10^6-10^7 CFU/mL of S. epidermidis broth suspensions in a water bath at 37° C. and 30 RPM. […]

The test system of a further data set is E. coli. Nature of the data set: Antimicrobial activity of CADMH-containing PS or HDPE films (sandwich test). The class given is cell-based. Here is the method:
Preparation of CADMH-containing polymeric materials. PS and HDPE were used as the model polymers to preliminarily evaluate the antimicrobial activities of CADMH as additives. In the preparation of CADMH-containing PS films, a certain amount of CADMH was dissolved in 5% PS solutions in THF. The solution was poured onto glass slides. The glass slides were put in a fume hood for 2 days at room temperature to evaporate most of the solvent, and then further dried in a vacuum oven at 30° C. for 3 days to obtain polymer films (100±10 μm of thickness). To prepare CADMH-containing HDPE films, a predetermined amount of CADMH was added into 5% HDPE solutions in hot o-xylene under constant stirring. After evaporation of the solvent, polymer films having a thickness of about 70±5 μm were obtained by hot pressing at 140° C. for 15 seconds. The chlorine contents of the CADMH-containing PS and HDPE films were determined by iodimetric titration, as described above. Pure PS or HDPE films without the presence of CADMH were prepared using the same procedures as controls.
Antimicrobial activity of CADMH-containing polymers. In the antimicrobial tests of CADMH-containing PS or HDPE films, 10 μL of E. coli suspensions (e.g., 10^8-10^9 CFU/mL) were placed onto the surface of a film (e.g., 4×4 cm). The film was then covered with another identical film. A 100 grams weight was added onto the whole “sandwich” to ensure sufficient contact. At different contact time, the “sandwich” was transferred into 10 mL of 0.03 wt % sodium thiosulfate aqueous solution to quench the active chlorine of the samples. The mixture was sonicated for 20 minutes and vortexed for 60 seconds to remove the adherent bacteria into the solution. The resultant solution was serially diluted, and each dilution was placed onto LB agar plates. The same procedure was also applied to the pure PS or HDPE films as controls. Bacterial colonies were counted after 24 hours of incubation at 37° C.

A short description of data set [4]: Storage stability, active chlorine content by iodimetric titration. The class given is physicochemical. The conditions noted are these: PS and HDPE films, storage for 4 months at 23±2° C. and 70±5% RH. The procedure: After storage for about 4 months under ambient conditions (e.g., 23±2° C., 70±5% RH), all the samples retained more than 96% of their original chlorine contents. The antimicrobial functions were tested monthly during the storage period, and after 4 months of storage, the minimum contact time of the samples for a total kill of 10^8-10^9 CFU/mL of E. coli or S. aureus was unchanged.

Data set [5] in a line: Thermal properties by DSC. The class given is physicochemical. The procedure: Thermal properties of the samples were examined with DSC, and the representative DSC curves are shown in FIG. 6 using DCSDMH and Cl-DCSDMH as examples. […] After chlorination, the N—H bond in DCSDMH is transformed into N—Cl group, and because of the lack of hydrogen bonding, the melting point of Cl-DCSDMH decreases to 52.4° C.
On the technique in general: Differential scanning calorimetry records heat flow against a reference as temperature is scanned.

[6] abbreviates: 1000 ppm active chlorine content.
[7] abbreviates: 1000 ppm of active chlorine content, 5 minutes of contact.

On to `CC1(C)CC(OC(=O)CCCCCCCCC(=O)OC2CC(C)(C)N(Cl)C(C)(C)C2)CC(C)(C)N1Cl` [Cl-BTMP, bis(N-chloro-2,2,6,6-tetramethyl-4-piperidinyl) sebacate], for which the “thermally stable up to” value in data set [1] was “up to 200 °C”.

For the molecule `CCN1C(=O)N(Cl)C(C)(C)C1=O` [Cl-EDMH], the solubility in water result in the data set “Solubility in water” (23° C.) was “ca. 3 g/L”. The “contact time for a total kill of 10^8-10^9 CFU/mL of S. aureus” value in data set [2] is given as “less than 5 minutes”. In addition, the “contact time for total kill of S. aureus” value in data set [2] (setting [6]) is recorded as “less than 5 minutes”. For the same molecule, the “contact time for a total kill of 10^8-10^9 CFU/mL of E. coli” value (“contact time for a total kill … of E. coli” for short) in data set [3] is reported as “less than 5 minutes”. The “contact time for total kill of E. coli” value in data set [3] (setting [6]) was “less than 5 minutes”.

With `CCCCCCCCCCCCCCCCCCN1C(=O)N(Cl)C(C)(C)C1=O` [Cl-ODDMH], the “bacteria recovered from the samples” value with S. epidermidis is “less than 50 CFU/cm^2”.

As to `CCCCCCN1C(=O)N(Cl)C(C)(C)C1=O` [Cl-HDMH], the “solubility in water (in words)” value in “Solubility in water” is “insoluble”. Besides, the “contact time for a total kill of 10^8-10^9 CFU/mL of S. aureus” value in data set [2] is recorded as 30 minutes. Besides, in data set [2] (setting [7]), the “% of kill of S. aureus” value amounted to 100%. In addition, the “log reduction of S. aureus” value in data set [2] (setting [7]) came to 7 log; in data set [2] (1000 ppm of active chlorine content, contact time 15 minutes) it was 8 log. In addition, the “contact time for a total kill … of E. coli” value in data set [3] was 30 minutes. Further, the “% of kill of E. coli” value is given as 99% in data set [3] (5 minutes of contact) and 99.999% in data set [3] (contact time 15 minutes). Moreover, the “log reduction of E. coli” value in data set [3] (5 minutes of contact) came out at 2 log; in data set [3] (contact time 15 minutes) it was 5 log.

For the molecule `CCCCCCCCCCCCCCCCCCCCCCN1C(=O)N(Cl)C(C)(C)C1=O` [Cl-DCSDMH], the results for the “contact time for a total kill … of E. coli” value (in the data set with E. coli (1% additive in HDPE films); with E. coli (1% additive in PS films); in data set [3]) were 4 hours, 4 hours and 60 minutes, respectively. For the same molecule, in the data set on E. coli (PS and HDPE films, storage for 4 months at 23±2° C. and 70±5% RH), the “antimicrobial activities of the films after storage” value is “no changes”. In addition, in data set [4], the “active chlorine contents of the films after storage” value is on record as “no changes”. Further, the “solubility in water (in words)” value in the data set “Solubility in water” is “insoluble”. For the same molecule, the “exothermic peak in the DSC curve (decomposition of the N—Cl bond)” value in data set [5] came out at 176.0 °C. In addition, the “contact time for a total kill of 10^8-10^9 CFU/mL of S. aureus” value in data set [2] turned out to be 60 minutes.

These data come from patent US10689526B2, “N-halamines compounds as multifunctional additives” (BOARD OF REGENTS, THE UNIVERSITY OF TEXAS SYSTEM, priority 2005, dated 2020).
